What all share (format): in vivo
In data set [1] the test system is Male C57BL6 mice. The data set can be described thus: Aβ42 administration study: cardiac function by echocardiography. As to the method:
(§1) After 4 weeks of peptide administration, cardiac function was assessed by echocardiography as follows. Mice were anaesthetised with inhalation of 1.5% isoflurane anaesthesia and echocardiography was performed using the Phillips HD15 diagnostic ultrasound system with a 15 MHz linear-array transducer by an experienced veterinarian. The velocity of blood flow through the mitral valve was analysed using Doppler mode imaging. […] Doppler imaging was also utilised to measure the velocity of blood flow through the aortic valve. The measurements were then used to calculate the ejection time, peak aortic flow and heart rate. M-mode imaging of the left ventricle was used to measure the thickness of the inter-ventricular septum (IVS), left ventricular internal diameter (LVID) and left ventricular posterior wall (LVPW) in both diastole (d) and end-systole (s) as well as systolic measures such as ejection fraction and fractional shortening. An estimation of LV mass was calculated from the m-mode imaging by using the formula (1.05[LVIDd+LVPWd+IVSd]^3−[LVIDd]^3) by Troy et al. (1972). Mice were humanely killed by cervical dislocation 1 week later. Blood was obtained immediately following by cardiac puncture and the heart, and other tissues were immediately removed. Hearts were washed in ice cold PBS and weighed prior to being snap frozen in liquid nitrogen.

In data set [2] the test system is Male C57BL6 mice. The data set can be described thus: Aβ42 administration study: GTT with glucose tracers, cardiac metabolism.
Description: At 12 weeks of age, mice were grouped according to body mass and composition, determined by EchoMRI. […] An i.p. glucose tolerance test (GTT) was performed on the final treatment day following an overnight fast. Mice were administered 2 g/kg lean mass of glucose including radioactive glucose tracers, prepared as follows. 100 μl of 1 μCi/μl glucose analogue, [^3H]-2-deoxyglucose (2-DOG), and 500 μl of 200 μCi/mL U-^14C glucose were evaporated to dryness before redissolving the radioactive tracers in 1 mL of 50% glucose. This produced a 50% glucose solution containing 100 μCi/mL [^3H]-2-DOG and 100 μCi/mL U-^14C glucose. The tail tip of each mouse was cut off and the blood glucose concentration of a blood sample was measured using an AccuCheck II glucometer (Roche). The GTT was initiated via intraperitoneal injection of the radiolabelled glucose solution (2 g/kg body weight, 10 uCi/animal) into the overnight-fasted mice. Further blood samples were taken at 15, 30, 45, 60 and 90 minutes after the injection for the measurement of blood glucose. Blood samples (30 μl) were also taken from the tail tip at each time point and diluted in 100 μl of saline. These samples were then centrifuged and the supernatant collected. 50 μl of the supernatant was diluted in 500 μl of distilled water and then suspended in 4 mL of Ultima Gold XR scintillation fluid (Packard Bioscience). Blood radioactivity was determined at each time point by performing liquid scintillation counting on each solution using the Beckman scintillation counter (LS6000 SC). At the conclusion of the GTT, mice were killed via cervical dislocation. Blood was obtained immediately following by cardiac puncture and the heart, and other tissues were immediately removed. Hearts were washed in ice cold PBS and weighed prior to being snap frozen in liquid nitrogen. The heart (30 mg), epididymal fat pad (30 mg and quadriceps skeletal muscle (30 mg) were homogenised in 1.5 ml of distilled water. The homogenate was centrifuged at 3000 rpm for 10 min at 4° C. 400 μl of the supernatant was diluted into 1.6 mL of distilled water and then suspended in 14 mL of Ultima Gold XR scintillation fluid (Packard Bioscience). The radioactivity of each sample (from both [3H]-2-DOG6P and [^3H]-2-DOG) was determined by liquid scintillation counting using the Beckman scintillation counter (LS6000 SC). The ^3H radioactivity was used to measure glucose uptake into each tissue.
To determine the incorporation of U-^14C glucose into triglyceride and the total triglyceride content in the heart, an extraction of triglyceride was carried out using a chloroform/methanol mixture. Samples of heart (30 mg) were hand-homogenised in 2 mL of chloroform/methanol (2:1) and the homogeniser rinsed in a further 2 mL of chloroform/methanol (2:1), and the washings being added to the original extract in 10 mL tubes. The tubes were tightly capped and mixed on a rotator overnight to maximise extraction of the triglycerides. 2 ml of 0.6% saline was then added, to facilitate the separation of the organic and aqueous phases, after which the tubes were mixed thoroughly and then centrifuged at 2000 rpm for 10 minutes. […] The amount of U-^14C glucose clearance into the lipid fraction was measured by suspending 100 μl of the triglyceride solution in 5 mL of Ultima Gold XR scintillation fluid (Packard Bioscience), followed by scintillation counting using the Beckman scintillation counter (LS6000 SC).
The next data set deals with obese mice (HFD). Description: Verubecestat-High fat diet (HFD) treatment study. As to the method: Verubecestat-High fat diet (HFD) treatment study: At 12 weeks of age, mice (n=30) were placed on a HFD with 43% of calories from fat (23.5% by weight; SF04-001 High Fat Rodent Diet Based on D12451, Specialty Feeds, Glen Forrest, Wash.). After 13 weeks of the diet period, echocardiography was performed on all mice to obtain pre-drug treatment measures of cardiac function. Mice were allocated to treatment groups so that measures of cardiac function and morphology were matched as best as possible. Verubecestat (MedChemExpress) was resuspended in 100% DMSO before being diluted in a hydroxypropyl cellulose solution to give a final solution containing 6.25 mg/mL Verubecestat in 10% hydroxypropyl cellulose and 5% DMSO. A vehicle solution containing 10% hydroxypropyl cellulose and 5% DMSO was also made. Aliquots of both drug and vehicle were stored at −80° C. until required. The HFD/Verubecestat group was administered 25 mg/kg of Verubecestat per day by oral gavage, while the HFD/control group received an equivalent volume of vehicle. Echocardiography was then performed following 4 weeks of the treatment period to obtain post-drug treatment measures of cardiac function. Following 5 weeks of the drug administration, mice were humanely killed via cervical dislocation and blood was immediately obtained via cardiac puncture and stored in a heparinised tube. The heart, epididymal fat pad, mesenteric fat pad, liver, quadricep, hind limb and brain were then immediately dissected. The heart was blotted prior to being weighed and all tissues were snap frozen in liquid nitrogen and stored at −80° C. Plasma Aβ species were measured using high sensitivity ELISA kits (Wako Diagnostics) and plasma that was diluted 1:10 with assay buffer.

Data set [3] deals with Male C57BL6 mice. The data set can be described thus: Aβ40 administration study. As to the method: as §1, with “Aβ40 administration study: Lyophilised recombinant Aβ40 (Millipore) and scrambled control peptide (ScrAβ40; Millipore) were resuspended in 1% NH4OH and aliquoted at 200 ng/ml in H2O and stored at −80° C. for no longer than 4 weeks. Male C57BL6 mice were obtained from the Animal Resource Centre (Perth, Wash.) at 4 weeks of age and housed with 4 mice per cage on a 12 hr light/dark cycle at a temperature of 22° C. and a constant humidity with a normal rodent diet. At 12 weeks of age, mice were grouped according to body mass and composition, determined by EchoMRI. Mice were then administered 1 μg of recombinant Aβ40 or ScrAβ40 (n=12/group per cohort) by i.p. injection once/day for 5 wks. After” for “After”, “nitrogen. Plasma Aβ40 was measured using a high sensitivity ELISA kit (Wako Diagnostics) and plasma that was diluted 1:10 with assay buffer.” for “nitrogen.”

On to “Aβ42: Lyophilised recombinant Aβ42 (Millipore), amyloid beta peptide of 42 amino acids”, for which the “internal dimensions of the left ventricle (LVIDd)” value in the data set on Male C57BL6 mice [1] (FIG. 2B) is “no effect”. In addition, the deceleration time result in the data set on Male C57BL6 mice [1] (FIG. 2D) is “increased”. For the same molecule, the fractional shortening entry in the data set with Male C57BL6 mice [1] (FIG. 2F) is recorded as “reduced”. For the same molecule, the ejection fraction entry in the data set on Male C57BL6 mice [1] (FIG. 2G) is listed as “reduced”. In the data set on Male C57BL6 mice [1] (between groups, FIG. 2E), the “E normalised by isovolumetric relaxation time (IVRT)” value is “no significant difference”. The gross heart weight result in the data set with Male C57BL6 mice [1] (five weeks Aβ42 vs ScrAβ42, FIG. 2A) is “no effect”. The “increase in plasma Aβ42 compared with administration of ScrAβ42” value in the data set with Male C57BL6 mice [2] (1 μg/day i.p., five weeks, FIG. 1A) was “approximately 3 fold”. Further, the “cardiac gene expression (inflammation, endoplasmic reticulum stress)” value in the data set on Male C57BL6 mice [2] (FIG. 1E) is listed as “gene expression changes indicative of cardiac stress responses”. The “whole body glucose tolerance or plasma insulin throughout the GTT” value with Male C57BL6 mice [2] (after five weeks of peptide administration, vs ScrAβ42) is “no difference”. For the same molecule, the “glucose incorporation into TAG (14C-glucose labelling)” value in the data set on Male C57BL6 mice [2] (heart, FIG. 1C) is “greater”. Also, in the data set on Male C57BL6 mice [2] (heart, FIG. 1D), the “total TAG” value is reported as “increased”.

As to `CN1C(N)=N[C@](C)(c2cc(NC(=O)c3ccc(F)cn3)ccc2F)CS1(=O)=O` [Verubecestat, verubecestat], in the data set with obese mice (HFD) (25 mg/kg per day oral gavage, obese mice, FIG. 7A), the “plasma Aβ40” value is listed as “decreased”. The “plasma Aβ42” value in the data set on obese mice (HFD) (25 mg/kg per day oral gavage, obese mice, FIG. 7B) is “decreased”. Further, the “DT after treatment, of baseline levels” value with obese mice (HFD) (4 weeks of daily treatment, 25 mg/kg oral, vehicle group 122%, FIG. 7C) turned out to be 107%.

With “Aβ40: Lyophilised recombinant Aβ40 (Millipore), amyloid beta peptide”, the “plasma Aβ40” value with Male C57BL6 mice [3] (1 μg/day i.p., 5 weeks, vs ScrAβ40, FIG. 6A) is reported as “significantly increased”. In addition, the “E:A ratio” value with Male C57BL6 mice [3] (FIG. 6B) is “did not have any effect”. In addition, in the data set with Male C57BL6 mice [3] (FIG. 6C), the DT result is recorded as “did not have any effect”. For the same molecule, the ejection fraction entry in the data set with Male C57BL6 mice [3] (FIG. 6E) was “nor any effect”. The IVSd entry with Male C57BL6 mice [3] (FIG. 6F) is reported as “no effect”. Also, the LVIDd result in the data set with Male C57BL6 mice [3] (FIG. 6G) is given as “no effect”. For the same molecule, the LV mass entry with Male C57BL6 mice [3] (FIG. 6H) is “no effect”.
